Among the data in patent publication US10836743B2, “Fluorinated cyclopropylamine compound, preparation method therefor, pharmaceutical composition thereof, and uses thereof” (SHANGHAI INSTITUTE OF MATERIA MEDICA, CHINESE ACADEMY OF …, priority 2016, dated 2020) are IC50 values, retold here.

Like-named read-outs stand apart in the source and are kept apart here.

The assay has as its system leukemia cells MV4-11. Put plainly: Inhibitory activity on growth by MTS method. It counts as cell-based. The settings on record: Homo sapiens. The protocol: 2. Test of Inhibitory Activities of Compound on Growth by MTS Method Experimental Principle:
MTS assay detects the inhibitory effect of the tested compound to the growth of leukemia cells MV (4:11). The principle is that succinate dehydrogenase in mitochondria in living cells can reduce exogenous thiazole blue to insoluble blue crystal Formazan.
• 1. MV4-11 cells in logarithmic growth phase were accurately counted at 16000 cells/mL, and the diluted cell solution was added to 96-well plates at 90 μL per well. • 2. Fresh medium was taken and sequentially added to a 96-well plate with cell fluid at 90 μL per well. • 3. […] 2 μL of the diluted compound was respectively added to a 96-well plate containing 98 μL of blank medium, and for DMSO group, 98 μL of blank medium was added into 2 μL of DMSO, and mixed for further use. • 5. The compound mixed with the medium was separately added to a 96-well plate in which cells were plated, in triplicate, 20 μL per well, and were mixed. The blank group was added with 200 μL of IMDM medium, and the DMSO group was added with 180 μL of the cell-containing medium in DMSO diluted with the medium. • 6. […]
(Formazan colour is commonly taken as a measure of viable cells.)

[1] abbreviates: 72 h, MV4-11, 3 days, read-out: MTS 3 D.
The mark [2] stands for this setting: 240 h, MV4-11, 10 days, read-out: MTS 10 D.

Consider `FC1(CN[C@@H]2C[C@H]2c2ccccc2)CCN(CCCc2ccccc2)CC1` (relative stereo) [Example A12, N-((4-fluoro-1-(3-phenylpropyl)piperidin-4-yl)methyl)-trans-2-phenylcyclopropylamine], for which the IC50 is, setting by setting: under setting [1], above 20 µM; under setting [2], 0.96 µM.

`CC(C)(C)OC(=O)c1ccc(CN2CCC(F)(CNC3CC3c3ccc(-c4ccccc4)s3)CC2)cc1` (centres unmarked) [Example A108, Tert-butyl 4-((4-fluoro-4-(((2-(5-phenylthiophen-2-yl)cyclopropyl)amino)methyl)piperidin-1-yl)methyl)benzoate]: the IC50 under setting [1] is 2.64 ± 0.97 µM and the IC50 under setting [2] was 11.9 ± 2.04 µM. On the same counts, the results for `O=C(OCC1CNC1)N1CCC(F)(CN[C@@H]2C[C@H]2c2ccccc2)CC1` (relative stereo) [Example A94, Azetidin-3-ylmethyl 4-fluoro-4-(((trans-2-phenylcyclopropyl)amino)methyl)piperidine-1-carboxylate] are above 20 µM and 0.039 ± 0.011 µM. In the case of `N#Cc1ccc(C#Cc2ccc(C3CC3NCC3(F)CCN(C(=O)OCC4CCNCC4)CC3)s2)cc1` (centres unmarked) [Example A114, Piperidin-4-ylmethyl 4-(((2-(5-((4-cyanophenyl)ethynyl)thiophen-2-yl)cyclopropyl)amino)methyl)-4-fluoropiperidine-1-carboxylate], the IC50 under setting [1] came to 15.3 ± 0.78 µM and the IC50 under setting [2] is 7.84 ± 0.35 µM. With `O=C(OCC1CCNCC1)N1CCC(F)(CNC2CC2c2ccc(-c3cccc(C(F)(F)F)c3)nc2)CC1` (centres unmarked) [Example A117], the IC50 by setting is: under setting [1], 15.4 ± 3.71 µM; under setting [2], 6.51 ± 2.02 µM.

Turning to `FC1(CN[C@@H]2C[C@H]2c2ccccc2)CCN(Cc2ccccc2)CC1` (relative stereo) [Example A6, N-((1-Benzyl-4-fluoropiperidin-4-yl)methyl)-trans-2-phenylcyclopropylamine], the IC50 under setting [1] is above 20 µM and the IC50 under setting [2] amounted to 1.02 ± 2.44 µM. Regarding `FC1(CN[C@@H]2C[C@H]2c2ccccc2)CCCCC1` (relative stereo) [Example A18, N-((1-Fluorocyclohexyl)methyl)-trans-2-phenylcyclopropylamine], the IC50 runs as follows: under setting [1], above 20 µM; under setting [2], 3 ± 5.19 µM.

As to `O=C(OCC1CCNCC1)N1CCC(F)(CN[C@H]2C[C@@H]2c2ccccc2)CC1` [(1S,2R)-A43], the IC50 by setting is: under setting [1], above 20 µM; under setting [2], 0.96 ± 0.444 µM.

As for `CNC1CCC(F)(CNC2CC2c2ccccc2)CC1` (stereo not drawn) [Example A11, 4-fluoro-N-methyl-4-(((trans-2-phenylcyclopropyl)amino)methyl)cyclohexane-1-amine], the IC50 under setting [1] was above 20 µM. As for `O=C(O)c1ccc(CN2CCC(F)(CN[C@H]3C[C@@H]3c3ccccc3)CC2)cc1` [(1S,2R)-A5, 4-((4-Fluoro-4-((((1S,2R)-2-phenylcyclopropyl)amino)methyl)piperidin-1-yl)methyl)benzoate], the IC50 under setting [1] was above 20 µM and the IC50 under setting [2] worked out at 3.77 ± 1.19 µM. As for `O=C(OCC1CCNCC1)N1CCC(F)(CNC2CC2c2ccc(-c3ccc(C(F)(F)F)cc3)s2)CC1` (centres unmarked) [Example A110, Piperidin-4-ylmethyl 4-fluoro-4-(((2-(5-(4-(trifluoromethyl)phenyl)thiophen-2-yl)cyclopropyl)amino)methyl) piperidine-1-carboxylate], the IC50 stood at 2.59 ± 0.14 µM under setting [1] and 5.93 ± 0.35 µM under setting [2].

Regarding `FC1(CN[C@@H]2C[C@H]2c2ccccc2)CCN(Cc2ccsc2)CC1` (relative stereo) [Example A98, N-((4-Fluoro-1-(thiophen-3-ylmethyl)piperidin-4-yl)methyl)-trans-2-phenylcyclopropylamine], the IC50 was above 20 µM under setting [1] and 0.064 ± 0.026 µM under setting [2]. As to `O=C(CCc1ccccc1)N1CCC(F)(CN[C@@H]2C[C@H]2c2ccccc2)CC1` (relative stereo) [Example A8, 1-(4-fluoro-4-(((trans-2-phenylcyclopropyl)amino)methyl)piperidin-1-yl)-3-phenyl-1-propanone], the IC50 runs as follows: under setting [1], above 20 µM; under setting [2], 0.27 ± 0.37 µM. `CS(=O)(=O)N1CCC(F)(CN[C@@H]2C[C@H]2c2ccccc2)CC1` (relative stereo) [Example A93, N-((4-Fluoro-1-(methylsulfonyl)piperidin-4-yl)methyl)-trans-2-phenylcyclopropylamine]: the IC50 under setting [1] is above 20 µM and the IC50 under setting [2] was determined as 0.239 ± 0.004 µM.

In the case of `O=C(CCC1CCCCC1)N1CCC(F)(CN[C@@H]2C[C@H]2c2ccccc2)CC1` (relative stereo) [Example A10, 3-cyclohexyl-1-(4-fluoro-4-(((trans-2-phenylcyclopropyl)amino)methyl)piperidin-1-yl)-1-propanone], the IC50 is above 20 µM under setting [1] and 0.6 ± 1.09 µM under setting [2].

As to `FC1(CN[C@@H]2C[C@H]2c2ccccc2)CCN(CCCC2CCCCC2)CC1` (relative stereo) [Example A14, N-((1-(3-Cyclohexylpropyl)-4-fluoropiperidin-4-yl)methyl)-trans-2-phenylcyclopropylamine], the IC50 runs as follows: under setting [1], 8.17 ± 0.35 µM; under setting [2], 13 ± 0.42 µM. With `O=C(OCC1CCNCC1)N1CCC(F)(CNC2CC2c2ccc(-c3ccc(F)cc3)nc2)CC1` (centres unmarked) [Example A118, Piperidin-4-ylmethyl 4-fluoro-4-(((2-(6-(4-fluorophenyl)pyridin-3-yl)cyclopropyl)amino)methyl)piperidine-1-carbox ylate], the IC50 reads like this: under setting [1], above 20 µM; under setting [2], 10.2 ± 2.77 µM. For the compound `O=C(OCC1CCNCC1)N1CCC(F)(CNC2CC2c2ccc(-c3ccccc3)nc2)CC1` (centres unmarked) [Example A115, Piperidin-4-ylmethyl 4-fluoro-4-(((2-(6-phenylpyridin-3-yl)cyclopropyl)amino)methyl)piperidine-1-carboxylate], the IC50 under setting [1] is above 20 µM and the IC50 under setting [2] was determined as 11 ± 0.978 µM. With `CC(C)(C)OC(=O)c1ccc(CN2CCC(F)(CNC3CC3c3ccc(-c4ccc(C(F)(F)F)cc4)s3)CC2)cc1` (centres unmarked) [Example A107, Tert-butyl 4-((4-fluoro-4-(((2-(5-(4-(trifluoromethyl)phenyl)thiophen-2-yl)cyclopropyl)amino)methyl)piperidin-1-yl)methyl)benzoate], the IC50 under setting [1] was 0.75 ± 0.15 µM and the IC50 under setting [2] is 13 ± 1.9 µM. `CS(=O)(=O)c1ccc(CN2CCC(F)(CN[C@@H]3C[C@H]3c3ccccc3)CC2)cc1` (relative stereo) [Example A16, N-((4-Fluoro-1-(4-(methylsulfonyl)benzyl)piperidin-4-yl)methyl)-trans-2-phenylcyclopropylamine]: the IC50 under setting [1] was above 20 µM. Consider `CC(C)(C)OC(=O)c1ccc(CN2CCC(F)(CNC3CC3c3ccc(-c4cccc5ccccc45)s3)CC2)cc1` (centres unmarked) [Example A109, tert-Butyl 4-((4-fluoro-4-(((2-(5-(naphthalen-1-yl)thiophen-2-yl)cyclopropyl)amino)methyl)piperidine-1-yl)methyl)benzoate], for which the IC50 under setting [1] turned out to be 2.1 ± 0.12 µM and the IC50 under setting [2] was determined as 4.7 ± 1.68 µM. As to `O=C(O)c1ccc(CN2CCC(COC(=O)N3CCC(F)(CNC4CC4c4ccccc4)CC3)CC2)cc1` (centres unmarked) [Example A91], the IC50 is above 20 µM under setting [1] and 1.7 ± 0.83 µM under setting [2].

With `O=C(OCC1CCNCC1)N1CCC(F)(CNC2CC2c2ccc(Br)s2)CC1` (centres unmarked) [Example A111, Piperidin-4-ylmethyl 4-(((2-(5-bromothien-2-yl)cyclopropyl)amino)methyl)-4-fluoropiperidine-1-carboxylate], the IC50 is, setting by setting: under setting [1], above 20 µM; under setting [2], 19.9 ± 0.86 µM.
